Structures can show the parent of a compound that is named as a salt.
Target: T1, papain (Carica papaya, UniProt P00784)
T1 construct: purchased Sigma Chem. Co
T1 sequence (P00784 134-345): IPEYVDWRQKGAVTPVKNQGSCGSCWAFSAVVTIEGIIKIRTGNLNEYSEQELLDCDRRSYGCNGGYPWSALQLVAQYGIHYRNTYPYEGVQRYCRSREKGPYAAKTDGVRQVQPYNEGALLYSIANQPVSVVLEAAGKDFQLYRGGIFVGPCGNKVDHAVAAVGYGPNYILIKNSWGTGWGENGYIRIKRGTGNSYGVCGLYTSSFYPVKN
Experiment: Papain inhibitory activity (milk casein digestion)
Format: biochemical
Conditions: papain 80 μg/ml 0.5 ml, cysteine, pH 6.8, 1% milk casein, 40° C., 10 minutes
Procedure: Papain inhibitory activity of the compounds of this invention was assayed as follows: To 0.5 ml of a solution of papain (80 μg/ml, Sigma Chem. Co., 2x cry.), were added 0.25 ml of 40 mM cysteine dissolved in 20 mM disodium ethylenediamine tetraacetic acid solution adjusted pH to 6.8 with sodium hydroxide and 0.25 ml of 33 mM phosphate buffer (pH 6.8) with or without inhibitor. After incubation at 40° C. for 15 minutes, the resulting mixture was added to 5 ml of 1% milk casein solution in the same buffer as described above, and further incubated at 40° C. for 10 minutes. Then the mixture was mixed with 5 ml of 0.44 M trichloroacetic acid solution and followed by filtration with a sheet of Toyo filter paper No. 4. The extinction of the filtrate was read at 280 nm. The percent inhibition was calculated from the formula, 100 x (B-A)/B; wherein B stands for the absorbance without inhibitor and A for the absorbance with inhibitor. The compound Nos. in Table 1 are as defined in Examples as described hereinafter.

Row | Compound | ID50 (amount of inhibitor for 50% inhibition)
1 | O=C(OCc1ccccc1I)[C@@H]1O[C@H]1C(=O)OCc1ccccc1I (relative stereo) [EP-105, di-o-iodobenzyl epoxysuccinate] | 0.40 γ
2 | O=C(OCCC12CC3CC(CC(C3)C1)C2)[C@@H]1O[C@H]1C(=O)OCCC12CC3CC(CC(C3)C1)C2 (relative stereo) [EP-49, di-2-(1-adamantane)ethyl epoxysuccinate] | 0.85 γ
3 | C[C@H]1CC[C@H](OC(=O)[C@@H]2O[C@H]2C(=O)O)CC1 (relative stereo) [EP-16, 4'-trans-methylcyclohexyl potassium epoxysuccinate] | 0.08 γ
4 | COC(=O)[C@H](CCCNC(=N)N[N+](=O)[O-])NC(=O)C1OC1C(=O)OCc1ccccc1 (stereo partly drawn) [EP-184, N^α -(3-benzyloxycarbonyloxirane-2-carbonyl)-N^G -nitro-L-arginine methyl ester] | 2.91 γ
5 | O=C(OCc1ccc(I)cc1)[C@@H]1O[C@H]1C(=O)OCc1ccc(I)cc1 (relative stereo) [EP-111, di-p-iodobenzyl epoxysuccinate] | 2.91 γ
6 | CCOC(=O)[C@@H](NC(=O)C1OC1C(=O)OCc1cccc2ccccc12)C(C)C (stereo partly shown) [EP-219] | 2.12 γ
7 | O=C(OCC1CCCC1)[C@@H]1O[C@H]1C(=O)OCC1CCCC1 (relative stereo) [EP-43, dicyclopentanemethyl epoxysuccinate] | 0.45 γ
8 | COC(=O)[C@H](CCSC)NC(=O)C1OC1C(=O)OCc1ccc2c(c1)OCO2 (stereo partly drawn) [EP-149, N-(3-piperonyloxycarbonyloxirane-2-carbonyl)-L-methionene methyl ester] | 0.70 γ
9 | O=C(O)[C@@H]1O[C@H]1C(=O)OCCCCC1CCCCC1 (relative stereo) [EP-68, 4-cyclohexanebutyl potassium epoxysuccinate] | 0.10 γ
10 | O=C(O)C1OC1C(=O)OC1CCC(Br)C(Cl)C1 (stereo not drawn) [EP-22, 3'-cis-chloro-4'-trans-bromocyclohexyl potassium epoxysuccinate] | 0.12 γ
11 | CCOC(=O)CNC(=O)[C@@H]1O[C@H]1C(=O)OCc1ccc2c(Br)cccc2c1 (relative stereo) [EP-220, N-[3-(5'-bromo-2-naphthylmethoxy)-carbonyloxirane-2-carbonyl]-glycine ethyl ester] | 9.86 γ
12 | O=C(O)[C@@H]1O[C@H]1C(=O)OC1CCCCCCC1 (relative stereo) [EP-36, cyclooctyl potassium epoxysuccinate] | 0.07 γ
13 | O=C(O)[C@@H]1O[C@H]1C(=O)OCc1cccc2c(Br)cccc12 (relative stereo) [EP-86, 5'-bromo-1'-naphthylmethyl potassium epoxysuccinate] | 0.27 γ
14 | CCOC(=O)[C@H](CC(C)C)NC(=O)C1OC1C(=O)OCCCC1CCCC1 (stereo partly drawn) [EP-203, N-[3-(3'-cyclopentylpropyloxy)carbonyloxirane-2-carbonyl]-L-leucine ethyl ester] | 0.12 γ
15 | O=C(NCCCC[C@H](NC(=O)C1OC1C(=O)[O-])C(=O)OCc1ccccc1)OCc1ccccc1.[K+] (stereo partly drawn) [EP-197, N^α -(3-carboxyoxirane-2-carbonyl)-N^ε -carbobenzoxy-L-lysine benzyl ester potassium salt] | 0.98 γ
16 | CCOC(=O)C1OC1C(=O)N[C@@H](Cc1ccccc1)C(=O)OCC (stereo partly drawn) [EP-150, N-(3-ethoxycarbonyloxirane-2-carbonyl)-L-phenylalanine ethyl ester] | 3.10 γ
17 | O=C(CC[C@H](NC(=O)C1OC1C(=O)OC1CCCCCCC1)C(=O)OCc1ccccc1)OCc1ccccc1 (stereo partly drawn) [EP-209, N-(3-cyclooctyloxycarbonyloxirane-2-carbonyl)-L-glutamic acid dibenzyl ester] | 2.45 γ
18 | CCOC(=O)C1OC1C(=O)N[C@@H](CC(C)C)C(N)=O (stereo partly drawn) [EP-167, N-(3-ethoxycarbonyloxirane-2-carbonyl)-L-leucine amide] | 0.50 γ
19 | O=C(NCCCC[C@H](NC(=O)C1OC1C(=O)O)C(=O)O)OCc1ccccc1 (stereo partly drawn) [EP-176, N-(3-carboxyoxirane-2-carbonyl)-N-carbobenzoxy-L-lysine dipotassium salt] | 1.06 γ
20 | O=C(O)[C@H]1O[C@@H]1C(=O)OCc1ccc(Br)c(Cl)c1 (relative stereo) [EP-126, 3'-chloro-4'-bromobenzyl potassium epoxysuccinate] | 0.12 γ

Row | Compound | ID50 (amount of inhibitor for 50% inhibition)
21 | O=C(N[C@@H](Cc1ccc(O)cc1)C(=O)OCc1ccccc1)C1OC1C(=O)OCC1CC=CCC1 (stereo partly drawn) [EP-211, N-[3-(3'-cyclohexen-1-yl)-methoxycarbonyloxirane-2-carbonyl]-L-tyrosine benzyl ester] | 0.61 γ
22 | CC(C)[C@H](NC(=O)C1OC1C(=O)OCc1ccc(Br)cc1)C(=O)OCc1ccccc1 (stereo partly drawn) [EP-162, N-(3-p-bromobenzyloxycarbonyloxirane-2-carbonyl)-L-valine benzyl ester] | 0.80 γ
23 | O=C(OCc1ccc(I)cc1Br)[C@H]1O[C@@H]1C(=O)OCc1ccc(I)cc1Br (relative stereo) [EP-119, di-2'-bromo-4'-iodobenzyl epoxysuccinate] | 3.00 γ
24 | O=C(O)[C@@H]1O[C@H]1C(=O)OCCCC1CCCCC1 (relative stereo) [EP-66, 3-cyclohexanepropyl potassium epoxysuccinate] | 0.08 γ
25 | O=C(O)[C@@H]1O[C@H]1C(=O)OC1CC1 (relative stereo) [EP-28, cyclopropyl potassium epoxysuccinate] | 0.80 γ
26 | C[C@@H]1CCCC[C@H]1OC(=O)[C@@H]1O[C@H]1C(=O)O (relative stereo) [EP-6, 2'-trans-methylcyclohexyl potassium epoxysuccinate] | 0.09 γ
27 | O=C(CNC(=O)[C@@H]1O[C@H]1C(=O)OCCC1CCCCC1)OCc1ccccc1 (relative stereo) [EP-207, N-[3-(2'-cyclohexylethoxy)-carbonyloxirane-2-carbonyl]-glycine benzyl ester] | 6.52 γ
28 | O=C(OCC1CC1)[C@@H]1O[C@H]1C(=O)OCC1CC1 (relative stereo) [EP-39, dicyclopropanemethyl epoxysuccinate] | 4.39 γ
29 | Cc1cccc2c(COC(=O)[C@@H]3O[C@H]3C(=O)O)ccc(C)c12 (relative stereo) [EP-88, 4',5'-dimethyl-1'-naphthylmethyl potassium epoxysuccinate] | 0.32 γ
30 | CC(OC(=O)C1OC1C(=O)OC(C)C1CCCC1)C1CCCC1 (stereo not shown) [EP-45, di-1-cyclopentaneethyl epoxysuccinate] | 0.23 γ
31 | O=C(NCCC[C@H](NC(=O)C1OC1C(=O)O)C(=O)OCc1ccccc1)OCc1ccccc1 (stereo partly drawn) [EP-196, N^α -(3-carboxyoxiane-2-carbonyl)-N^δ -carbobenzoxy-L-ornithine benzyl ester potassium salt] | 0.11 γ
32 | O=C(OC1CCC(Br)C(Cl)C1)C1OC1C(=O)OC1CCC(Br)C(Cl)C1 (stereo not drawn) [EP-21, di-3'-cis-chloro-trans-4'-bromocyclohexyl epoxysuccinate] | 2.46 γ
33 | O=C(OCC1CC=CCC1)C1OC1C(=O)OCC1CC=CCC1 (stereo not shown) [EP-69, di-3-cyclohexenemethyl epoxysuccinate] | 0.23 γ
34 | O=C(O)C1OC1C(=O)OCC1C=CCC1 (stereo not shown) [EP-72, 2-cyclopentenemethyl potassium epoxysuccinate] | 0.08 γ
35 | CCOC(=O)C1OC1C(=O)N[C@@H](Cc1c[nH]c2ccccc12)C(=O)OCC (stereo partly drawn) [EP-151, N-(3-ethoxycarbonyloxirane-2-carbonyl)-L-tryptophan ethyl ester] | 7.20 γ
36 | C=CCOC(=O)[C@H]1O[C@@H]1C(=O)O (relative stereo) [EP-140, allyl potassium epoxysuccinate] | 0.92 γ
37 | O=C(O)[C@@H]1O[C@H]1C(=O)OCC1CCC=CCCC1 (relative stereo) [EP-74, 4-cyclooctenemethyl potassium epoxysuccinate] | 0.07 γ
38 | COC(=O)[C@H](C)NC(=O)C1OC1C(=O)O[C@H]1CC[C@H](C)CC1 (stereo partly drawn) [EP-215, N-[3-(4'-trans-methylcyclohexyloxy)-carbonyloxirane-2-carbonyl]-L-alanine methyl ester] | 3.55 γ
39 | CCOC(=O)C1OC1C(=O)N[C@@H](CCCCNC(=O)OC(C)(C)C)C(=O)OCc1ccccc1 (stereo partly drawn) [EP-170, N^α -(3-ethoxycarbonyloxirane-2-carbonyl)-N^ε -t-butyloxycarbonyl-L-lysine benzyl ester] | 27.50 γ
40 | O=C(O)[C@H]1O[C@@H]1C(=O)OCc1cccc(F)c1 (relative stereo) [EP-122, m-fluorobenzyl potassium epoxysuccinate] | 0.10 γ

Source: patent US4393228A, “Epoxysuccinic acid derivatives” (Taisho Pharmaceutical Co., Ltd., priority 1977, dated 1983)
